In PubChem BioAssay (NCI):
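Five concentrations, 48 hours, 96-well plates. GI50 = concentration required for 50% inhibition of growth. Definition used: TGI = concentration required for complete inhibition of growth.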

Tests used:
Experiment in all cases: NCI-60 cell line screen, 48 h
[1] = tested on: 786-0 renal
[2] = tested on: A498 renal
[3] = tested on: A549 NSCLC
[4] = tested on: ACHN renal
[5] = tested on: BT-549 breast
[6] = tested on: CAKI-1 renal
[7] = tested on: CCRF-CEM leukemia
[8] = tested on: COLO 205 colon
[9] = tested on: DU-145 prostate
[10] = tested on: EKVX NSCLC
[11] = tested on: HCC-2998 colon
[12] = tested on: HCT-116 colon
[13] = tested on: HCT-15 colon
[14] = tested on: HL-60(TB) leukemia
[15] = tested on: HOP-62 NSCLC
[16] = tested on: HOP-92 NSCLC
[17] = tested on: HS 578T breast
[18] = tested on: HT29 colon
[19] = tested on: IGROV1 ovarian
[20] = tested on: K-562 leukemia
[21] = tested on: KM12 colon
[22] = tested on: LOX IMVI melanoma
[23] = tested on: M14 melanoma
[24] = tested on: MALME-3M melanoma
[25] = tested on: MCF7 breast
[26] = tested on: MDA-MB-231 breast
[27] = tested on: MDA-MB-435
[28] = tested on: MDA-MB-468 breast
[29] = tested on: MOLT-4 leukemia
[30] = tested on: NCI-H226 lung
[31] = tested on: NCI-H23 lung
[32] = tested on: NCI-H460 lung
[33] = tested on: NCI-H522 lung
[34] = tested on: NCI/ADR-RES ovarian
[35] = tested on: OVCAR-3 ovarian
[36] = tested on: OVCAR-4 ovarian
[37] = tested on: OVCAR-5 ovarian
[38] = tested on: OVCAR-8 ovarian
[39] = tested on: PC-3 prostate
[40] = tested on: RPMI-8226 leukemia
[41] = tested on: RXF 393 renal
[42] = tested on: SF-268 CNS
[43] = tested on: SF-295 CNS
[44] = tested on: SF-539 CNS
[45] = tested on: SK-MEL-2 melanoma
[46] = tested on: SK-MEL-28 melanoma
[47] = tested on: SK-MEL-5 melanoma
[48] = tested on: SK-OV-3 ovarian
[49] = tested on: SN12C renal
[50] = tested on: SNB-19 CNS
[51] = tested on: SNB-75 CNS
[52] = tested on: SR leukemia
[53] = tested on: SW-620 colon
[54] = tested on: T-47D breast
[55] = tested on: TK-10 renal
[56] = tested on: U251 CNS
[57] = tested on: UACC-257 melanoma
[58] = tested on: UACC-62 melanoma
[59] = tested on: UO-31 renal

Cc1noc2c(Cc3ccccc3)nn(CC(=O)N/N=C/c3ccc(F)cc3)c(=O)c12
GI50 [1]: 3.13 µM
TGI [1]: 12.4 µM
GI50 [2]: 11 µM
TGI [2]: 33.7 µM
GI50 [3]: 46.2 µM
TGI [3]: > 100 µM
GI50 [4]: 4.88 µM
TGI [4]: 24.1 µM
GI50 [5]: 14.5 µM
TGI [5]: 37.8 µM
GI50 [6]: 6.13 µM
TGI [6]: 32.1 µM
GI50 [7]: > 100 µM
TGI [7]: > 100 µM
GI50 [8]: > 100 µM
TGI [8]: > 100 µM
GI50 [9]: > 100 µM
TGI [9]: > 100 µM
GI50 [10]: > 100 µM
TGI [10]: > 100 µM
GI50 [11]: > 100 µM
TGI [11]: > 100 µM
GI50 [12]: 5.08 µM
TGI [12]: 77.3 µM
GI50 [13]: > 100 µM
TGI [13]: > 100 µM
GI50 [14]: > 100 µM
TGI [14]: > 100 µM
GI50 [15]: 5.29 µM
TGI [15]: 21 µM
GI50 [16]: 9.56 µM
TGI [16]: 27.8 µM
GI50 [17]: 4.65 µM
TGI [17]: 46.7 µM
GI50 [18]: > 100 µM
TGI [18]: > 100 µM
GI50 [19]: 22.5 µM
TGI [19]: 54.2 µM
GI50 [20]: 84.4 µM
TGI [20]: > 100 µM
GI50 [21]: > 100 µM
TGI [21]: > 100 µM
GI50 [22]: 33 µM
TGI [22]: > 100 µM
GI50 [23]: 26.1 µM
TGI [23]: > 100 µM
GI50 [24]: 8.99 µM
TGI [24]: 38.5 µM
GI50 [25]: 66.5 µM
TGI [25]: > 100 µM
GI50 [26]: 4.92 µM
TGI [26]: 21.8 µM
GI50 [27]: > 100 µM
TGI [27]: > 100 µM
GI50 [28]: 16.1 µM
TGI [28]: 57.8 µM
GI50 [29]: > 100 µM
TGI [29]: > 100 µM
GI50 [30]: 4.12 µM
TGI [30]: 29.3 µM
GI50 [31]: 17 µM
TGI [31]: 41.7 µM
GI50 [32]: 9.78 µM
TGI [32]: > 100 µM
GI50 [33]: 19.1 µM
TGI [33]: 73.6 µM
GI50 [34]: 21.3 µM
TGI [34]: > 100 µM
GI50 [35]: 87.1 µM
TGI [35]: > 100 µM
GI50 [36]: 3.95 µM
TGI [36]: > 100 µM
GI50 [37]: > 100 µM
TGI [37]: > 100 µM
GI50 [38]: 27.9 µM
TGI [38]: > 100 µM
GI50 [39]: 66.1 µM
TGI [39]: > 100 µM
GI50 [40]: > 100 µM
TGI [40]: > 100 µM
GI50 [41]: 5.4 µM
TGI [41]: 21.2 µM
GI50 [42]: 24.6 µM
TGI [42]: > 100 µM
GI50 [43]: 3.33 µM
TGI [43]: 17.3 µM
GI50 [44]: 16.7 µM
TGI [44]: 37.3 µM
GI50 [45]: 16.3 µM
TGI [45]: 33.3 µM
GI50 [46]: > 100 µM
TGI [46]: > 100 µM
GI50 [47]: 33.2 µM
TGI [47]: > 100 µM
GI50 [48]: 4.4 µM
TGI [48]: 16 µM
GI50 [49]: > 100 µM
TGI [49]: > 100 µM
GI50 [50]: 6.74 µM
TGI [50]: 24.2 µM
GI50 [51]: 8.25 µM
TGI [51]: 32.2 µM
GI50 [52]: > 100 µM
TGI [52]: > 100 µM
GI50 [53]: > 100 µM
TGI [53]: > 100 µM
GI50 [54]: 5.62 µM
TGI [54]: > 100 µM
GI50 [55]: 13.6 µM
TGI [55]: 36.9 µM
GI50 [56]: 18.3 µM
TGI [56]: > 100 µM
GI50 [57]: 78.1 µM
TGI [57]: > 100 µM
GI50 [58]: 20.9 µM
TGI [58]: 66.8 µM
GI50 [59]: 18 µM
TGI [59]: > 100 µM
